Reference: PubChem BioAssay AID2060616 (Molecular Pharmacology Branch, DTP, NCI, 2025)
Values joined by “and” are separate entries in the source; they are usually repeats but may differ in a detail not shown here. Equal entries are not always repeated.

Test system: 377384-186-R-J1-PDC complex spheroid viability
Test: Anticancer human tumor 377384-186-R-J1-PDC patient-derived pancreatic carcinoma cell line growth inhibition [CLK]
Conditions: for viability, T/C: stronger effect = lower value
Procedure, shortened: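 Patient-derived tumor cells grown as complex spheroids with HUVEC endothelial cells and mesenchymal stem cells, treated with drug combinations. Concentrations descend in half-log steps from near clinical Cmax, or from 10 microM if Cmax unknown.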
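Also: spheroids exposed to agents for 7 days before reading.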
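For viability, T/C in this document: luminescence signal used as a stand-in for viable cells.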

With `CC(C)CC(NC(=O)C(Cc1ccccc1)NC(=O)c1cnccn1)B(O)O` (centres undefined) + CNC(=O)c1ccc(Nc2nc(OC3CCCC3)c3c(-c4ccc5nc(C)oc5c4)c[nH]c3n2)c(OC)c1 the IC50 (curve of first compound, second compound 0.0316 µM) was 1.41 nM, the IC50 (curve of first compound, second compound 0.1 µM) was < 0.949 nM and the IC50 (curve of first compound, second compound 0.316 µM) was < 0.949 nM. For the same molecule, the IC50 (curve of first compound, second compound 1 µM) was < 0.949 nM, the IC50 (curve of first compound, second compound 3.16 µM) was < 0.949 nM and the IC50 (curve of first compound, second compound 10 µM) was < 0.949 nM. The viability, T/C (second compound 0.0316 µM, first compound 0.000949 µM) was 75.2%, the viability, T/C (second compound 0.0316 µM, first compound 0.003 µM) was 2.16% and the viability, T/C (second compound 0.0316 µM, first compound 0.00949 µM) was 0.37%. For the same molecule, the viability, T/C (second compound 0.0316 µM, first compound 0.03 µM) was 0.17%, the viability, T/C (second compound 0.0316 µM, first compound 0.0949 µM) was 0.17% and the viability, T/C (second compound 0.0316 µM, first compound 0.3 µM) was 0.13%. It also gave a viability, T/C (second compound 0.1 µM, first compound 0.000949 µM) of 44%, a viability, T/C (second compound 0.1 µM, first compound 0.003 µM) of 1.4% and a viability, T/C (second compound 0.1 µM, first compound 0.00949 µM) of 0.25%. It also gave a viability, T/C (second compound 0.1 µM, first compound 0.03 µM) of 0.15%, a viability, T/C (second compound 0.1 µM, first compound 0.0949 µM) of 0.13% and a viability, T/C (second compound 0.1 µM, first compound 0.3 µM) of 0.15%. The viability, T/C (second compound 0.316 µM, first compound 0.000949 µM) was 21.4%, the viability, T/C (second compound 0.316 µM, first compound 0.003 µM) was 0.99% and the viability, T/C (second compound 0.316 µM, first compound 0.00949 µM) was 0.18%. It also gave a viability, T/C (second compound 0.316 µM, first compound 0.03 µM) of 0.14%, a viability, T/C (second compound 0.316 µM, first compound 0.0949 µM) of 0.15% and a viability, T/C (second compound 0.316 µM, first compound 0.3 µM) of 1.69%. The viability, T/C (second compound 1 µM, first compound 0.000949 µM) was 17.2%, the viability, T/C (second compound 1 µM, first compound 0.003 µM) was 0.98% and the viability, T/C (second compound 1 µM, first compound 0.00949 µM) was 0.28%. It also gave a viability, T/C (second compound 1 µM, first compound 0.03 µM) of 0.24%, a viability, T/C (second compound 1 µM, first compound 0.0949 µM) of 0.51% and a viability, T/C (second compound 1 µM, first compound 0.3 µM) of 0.35%. For the same molecule, the viability, T/C (second compound 3.16 µM, first compound 0.000949 µM) was 14.8%, the viability, T/C (second compound 3.16 µM, first compound 0.003 µM) was 0.96% and the viability, T/C (second compound 3.16 µM, first compound 0.00949 µM) was 0.36%. For the same molecule, the viability, T/C (second compound 3.16 µM, first compound 0.03 µM) was 0.23%, the viability, T/C (second compound 3.16 µM, first compound 0.0949 µM) was 0.31% and the viability, T/C (second compound 3.16 µM, first compound 0.3 µM) was 0.21%. It also gave a viability, T/C (second compound 10 µM, first compound 0.000949 µM) of 14.3%, a viability, T/C (second compound 10 µM, first compound 0.003 µM) of 0.81% and a viability, T/C (second compound 10 µM, first compound 0.00949 µM) of 0.71%. For the same molecule, the viability, T/C (second compound 10 µM, first compound 0.03 µM) was 0.24%, the viability, T/C (second compound 10 µM, first compound 0.0949 µM) was 0.62% and the viability, T/C (second compound 10 µM, first compound 0.3 µM) was 0.3%.

`C#Cc1c(F)ccc2cc(O)cc(-c3ncc4c(N5CC6CCC(C5)N6)nc(OCC56CCCN5CC(F)C6)nc4c3F)c12` (centres undefined) was tested, and the viability, T/C (compound 0.0316 µM) was 21.7% and 21.4%, the viability, T/C (compound 0.1 µM) was 9.43% and 10.6% and the viability, T/C (compound 0.316 µM) was 5.31% and 3.97%. For the same molecule, the viability, T/C (compound 1 µM) was 4.69% and 4.41%, the viability, T/C (compound 3.16 µM) was 2.25% and 2.02% and the viability, T/C (compound 10 µM) was 1.85% and 1.77%. For the same molecule, the IC50 (curve of compound) was < 31.6 nM.
